Assay results as given in patent publication US10149855B2, “Gamma-secretase inhibition reduce APOC3 levels and plasma triglycerides” (THE TRUSTEES OF COLUMBIA UNIVERSITY IN THE CITY OF NEW YORK, priority 2014, dated 2018).

What was measured:
[1] = tested on: Lean mice, diet induced obese (DIO) mice, and leptin-deficient obese (ob/ob) mice; assay: Weight, glucose and insulin of mice administered GSI (DBZ) or vehicle; type: in vivo
Protocol: Lean mice, diet induced obese (DIO) mice, and leptin-deficient obese (ob/ob) mice were administered either vehicle or GSI. [table]

DIO mice = assay: Fasted/refed plasma glucose and glucose clearance in GSI-treated mice; type: in vivo; settings: compared to vehicle (FIG. 3 Panel A)
mice [2] = settings: mouse, in vivo
mice [3] = assay: Triglyceride secretion after lipoprotein lipase inhibition with Poloxamer 407; type: in vivo; settings: plasma TG after lipoprotein lipase inhibition with Poloxamer 407 (FIG. 7)
Description: DBZ-induced lower plasma TG in diet-induced obese (DIO) and leptin-deficient obese (ob/ob) mice is in the VLDL fraction. […] To differentiate these—we created a liver-specific gamma-secretase knockout mouse.

[4] = tested on: lean, diet-induced obese (DIO) and leptin-deficient obese (ob/ob) mice; assay: Plasma/serum triglyceride levels in mice treated with GSI or vehicle; type: in vivo
Protocol: Mice were administered GSI or vehicle alone to determine the effect of GSI treatment on serum triglyceride levels. […] Plasma triglyceride lowering in genetic (leptin deficient ob/ob mice) or diet-induced mouse models of obesity was even more profound, with reductions approaching 75% of vehicle-treated animals. […] L-Ncst mice had similar reductions in plasma triglyceride as GSI-treated mice, proof that the mechanism of GSI-induced reduction in plasma triglyceride is through effects on liver. L-Ncst mice had approximately 40% reduced plasma triglyceride as compared to control mice when fed normal chow, but this rises to a staggering 70% reduction when mice were challenged with high-fat diet feeding. […] As such, gamma-secretase inhibition with GSIs or liver-specific gamma-secretase blockers would be predicted to have a greater, and perhaps synergistic, effect in reducing plasma triglyceride as compared to drugs that solely target ApoC3 expression.

ApoC3 = assay: Plasma ApoC3 levels in GSI-treated mice; type: in vivo
Description: Plasma triglyceride lowering in genetic (leptin deficient ob/ob mice) or diet-induced mouse models of obesity was even more profound, with reductions approaching 75% of vehicle-treated animals. […] L-Ncst mice had similar reductions in plasma triglyceride as GSI-treated mice, proof that the mechanism of GSI-induced reduction in plasma triglyceride is through effects on liver. L-Ncst mice had approximately 40% reduced plasma triglyceride as compared to control mice when fed normal chow, but this rises to a staggering 70% reduction when mice were challenged with high-fat diet feeding. […] As such, gamma-secretase inhibition with GSIs or liver-specific gamma-secretase blockers would be predicted to have a greater, and perhaps synergistic, effect in reducing plasma triglyceride as compared to drugs that solely target ApoC3 expression.

Nicastrin = assay: shRNA-mediated knockdown of Nicastrin, ApoC3 secretion; type: cell-based; settings: mouse hepatocytes (FIG. 25)

Compound | Glucose ([1]; DIO mice) [mg/dL] | Insulin ([1]; DIO mice) [ng/mL] | Glucose ([1]; lean mice) [mg/dL] | Insulin ([1]; lean mice) [ng/mL] | Glucose ([1]; ob/ob mice) [mg/dL] | Insulin ([1]; ob/ob mice) [ng/mL] | fasted and refed glucose (DIO mice) | gastrointestinal (GI) toxicity (mice [2]) | TG secretion (mice [3]) | triglycerides in VLDL, LDL and HDL fractions ([4]; DIO and ob/ob mice (FIG. 5)) | plasma triglyceride ([4]; lean mice) | plasma triglyceride reduction ([4]; ob/ob or diet-induced obese mice, relative to vehicle-treated animals) [%] | plasma triglyceride (TG) ([4]; obese mice (DIO and ob/ob), compared to vehicle (FIG. 4)) | plasma ApoC3 levels (ApoC3) | ApoC3 secretion (Nicastrin)
C[C@H](NC(=O)Cc1cc(F)cc(F)c1)C(=O)N[C@@H]1C(=O)N(C)c2ccccc2-c2ccccc21 [GSI, N-[(1S)-2-[[(7S)-6,7-dihydro-5-methyl-6-oxo-5H-dibenz[b,d]azepin-7-yl]amino]-1-methyl-2-oxoethyl]-3,5-difluoro-benzeneacetamide] | 72 ± 5 | 1.33 ± 0.32 | 64 ± 2 | 0.49 ± 0.04 | 98 ± 6 | 15.6 ± 3.25 | reduced both fasted as well as refed (or exogenous) glucose | not associated with apparent gastrointestinal (GI) toxicity | does not affect TG secretion | lowered triglycerides in the VLDL fraction | reduces plasma triglyceride in a dose-dependent manner | ~75 | lower plasma triglyceride | markedly and proportionately reduced | –
SEQ ID NO. 59: shRNA for knockdown of Nicastrin, sequence CTCCTTCCACAATCGGTATTA (listed as DNA, chemistry not fully specified; listed as Rattus norvegicus) | – | – | – | – | – | – | – | – | – | – | – | – | – | – | reduces ApoC3 secretion
